Source: PubChem BioAssay (NCI)
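Following 48 hours of exposure in 96-well plates, responses at five concentrations were used to interpolate endpoints linearly. GI50 = concentration required for 50% inhibition of growth. TGI: total growth inhibition.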

Key:
Test in all cases: NCI anticancer screen, dose series, 48 h
HOP-92 NSCLC = system: HOP-92 NSCLC
HT29 colon = system: HT29 colon
TK-10 renal = system: TK-10 renal
LOX IMVI melanoma = system: LOX IMVI melanoma
UO-31 renal = system: UO-31 renal
MCF7 breast = system: MCF7 breast
NCI-H23 lung = system: NCI-H23 lung
OVCAR-5 ovarian = system: OVCAR-5 ovarian
SNB-19 CNS = system: SNB-19 CNS
HL-60(TB) leukemia = system: HL-60(TB) leukemia
SK-MEL-2 melanoma = system: SK-MEL-2 melanoma
K-562 leukemia = system: K-562 leukemia
HS 578T breast = system: HS 578T breast
M14 melanoma = system: M14 melanoma
PC-3 prostate = system: PC-3 prostate
NCI-H226 lung = system: NCI-H226 lung
OVCAR-4 ovarian = system: OVCAR-4 ovarian
MOLT-4 leukemia = system: MOLT-4 leukemia
CCRF-CEM leukemia = system: CCRF-CEM leukemia
ACHN renal = system: ACHN renal
HOP-62 NSCLC = system: HOP-62 NSCLC
SK-MEL-5 melanoma = system: SK-MEL-5 melanoma
CAKI-1 renal = system: CAKI-1 renal
RXF 393 renal = system: RXF 393 renal
KM12 colon = system: KM12 colon
HCC-2998 colon = system: HCC-2998 colon
IGROV1 ovarian = system: IGROV1 ovarian
SNB-75 CNS = system: SNB-75 CNS
UACC-62 melanoma = system: UACC-62 melanoma
SK-MEL-28 melanoma = system: SK-MEL-28 melanoma
COLO 205 colon = system: COLO 205 colon
MALME-3M melanoma = system: MALME-3M melanoma
SW-620 colon = system: SW-620 colon
SF-295 CNS = system: SF-295 CNS
NCI-H460 lung = system: NCI-H460 lung
T-47D breast = system: T-47D breast
NCI/ADR-RES ovarian = system: NCI/ADR-RES ovarian
HCT-15 colon = system: HCT-15 colon
OVCAR-3 ovarian = system: OVCAR-3 ovarian
RPMI-8226 leukemia = system: RPMI-8226 leukemia
A498 renal = system: A498 renal
OVCAR-8 ovarian = system: OVCAR-8 ovarian
SN12C renal = system: SN12C renal
EKVX NSCLC = system: EKVX NSCLC
NCI-H522 lung = system: NCI-H522 lung
SK-OV-3 ovarian = system: SK-OV-3 ovarian
SF-268 CNS = system: SF-268 CNS
SR leukemia = system: SR leukemia
A549 NSCLC = system: A549 NSCLC
BT-549 breast = system: BT-549 breast
786-0 renal = system: 786-0 renal
U251 CNS = system: U251 CNS
DU-145 prostate = system: DU-145 prostate
HCT-116 colon = system: HCT-116 colon
MDA-MB-231 breast = system: MDA-MB-231 breast
SF-539 CNS = system: SF-539 CNS
UACC-257 melanoma = system: UACC-257 melanoma
MDA-MB-435 = system: MDA-MB-435

Which results are given for Cc1cc(C)c(CNC(=O)c2cc(-c3ccc(CN4CCOCC4)cc3)cc3c2cnn3C2CCCC2)c(=O)[nH]1?
GI50 (HOP-92 NSCLC): 10.2 µM; TGI (HOP-92 NSCLC): 27.2 µM; GI50 (HT29 colon): 11.8 µM; TGI (HT29 colon): 27.1 µM; GI50 (TK-10 renal): 16.4 µM; TGI (TK-10 renal): 35.9 µM; GI50 (LOX IMVI melanoma): 15.3 µM; TGI (LOX IMVI melanoma): 34.2 µM; GI50 (UO-31 renal): 8.8 µM; TGI (UO-31 renal): 26.6 µM; GI50 (MCF7 breast): 10.8 µM; TGI (MCF7 breast): 28.8 µM; GI50 (NCI-H23 lung): 18.5 µM; TGI (NCI-H23 lung): 47.8 µM; GI50 (OVCAR-5 ovarian): 22.1 µM; TGI (OVCAR-5 ovarian): 63.5 µM; GI50 (SNB-19 CNS): 24.7 µM; TGI (SNB-19 CNS): 77.1 µM; GI50 (HL-60(TB) leukemia): 16.5 µM; TGI (HL-60(TB) leukemia): 55.2 µM; GI50 (SK-MEL-2 melanoma): 17.8 µM; TGI (SK-MEL-2 melanoma): 35.4 µM; GI50 (K-562 leukemia): 21.4 µM; TGI (K-562 leukemia): > 100 µM; GI50 (HS 578T breast): 19.1 µM; TGI (HS 578T breast): 64 µM; GI50 (M14 melanoma): 18.8 µM; TGI (M14 melanoma): 43.1 µM; GI50 (PC-3 prostate): 17.9 µM; TGI (PC-3 prostate): 54.6 µM; GI50 (NCI-H226 lung): 17.5 µM; TGI (NCI-H226 lung): 37 µM; GI50 (OVCAR-4 ovarian): 21.3 µM; TGI (OVCAR-4 ovarian): 91.6 µM; GI50 (MOLT-4 leukemia): 17.5 µM; TGI (MOLT-4 leukemia): > 100 µM; GI50 (CCRF-CEM leukemia): 26.3 µM; TGI (CCRF-CEM leukemia): 97.5 µM; GI50 (ACHN renal): 15.1 µM; TGI (ACHN renal): 34.6 µM; GI50 (HOP-62 NSCLC): 18 µM; TGI (HOP-62 NSCLC): 39.3 µM; GI50 (SK-MEL-5 melanoma): 13.7 µM; TGI (SK-MEL-5 melanoma): 27.3 µM; GI50 (CAKI-1 renal): 16.1 µM; TGI (CAKI-1 renal): 42.2 µM; GI50 (RXF 393 renal): 14.6 µM; TGI (RXF 393 renal): 32.6 µM; GI50 (KM12 colon): 18.6 µM; TGI (KM12 colon): 49 µM; GI50 (HCC-2998 colon): 16.6 µM; TGI (HCC-2998 colon): 35.5 µM; GI50 (IGROV1 ovarian): 17.6 µM; TGI (IGROV1 ovarian): 67.8 µM; GI50 (SNB-75 CNS): 12.6 µM; TGI (SNB-75 CNS): 32.4 µM; GI50 (UACC-62 melanoma): 17.8 µM; TGI (UACC-62 melanoma): 43.2 µM; GI50 (SK-MEL-28 melanoma): 15.7 µM; TGI (SK-MEL-28 melanoma): 32.4 µM; GI50 (COLO 205 colon): 14.7 µM; TGI (COLO 205 colon): 34 µM; GI50 (MALME-3M melanoma): 16.7 µM; TGI (MALME-3M melanoma): 34.1 µM; GI50 (SW-620 colon): 25.3 µM; TGI (SW-620 colon): > 100 µM; GI50 (SF-295 CNS): 16.6 µM; TGI (SF-295 CNS): 36.5 µM; GI50 (NCI-H460 lung): 16.1 µM; TGI (NCI-H460 lung): 43 µM; GI50 (T-47D breast): 12.9 µM; TGI (T-47D breast): 50.4 µM; GI50 (NCI/ADR-RES ovarian): 15.1 µM; TGI (NCI/ADR-RES ovarian): 42.5 µM; GI50 (HCT-15 colon): 10.2 µM; TGI (HCT-15 colon): 25.9 µM; GI50 (OVCAR-3 ovarian): 13.4 µM; TGI (OVCAR-3 ovarian): 30.9 µM; GI50 (RPMI-8226 leukemia): 13.7 µM; TGI (RPMI-8226 leukemia): 50.7 µM; GI50 (A498 renal): 15.5 µM; TGI (A498 renal): 34.6 µM; GI50 (OVCAR-8 ovarian): 17.3 µM; TGI (OVCAR-8 ovarian): 57.9 µM; GI50 (SN12C renal): 19.3 µM; TGI (SN12C renal): 46.6 µM; GI50 (EKVX NSCLC): 11.8 µM; TGI (EKVX NSCLC): 28.2 µM; GI50 (NCI-H522 lung): 16.2 µM; TGI (NCI-H522 lung): 30.4 µM; GI50 (SK-OV-3 ovarian): 20.1 µM; TGI (SK-OV-3 ovarian): 44.5 µM; GI50 (SF-268 CNS): 13.9 µM; TGI (SF-268 CNS): 43.8 µM; GI50 (SR leukemia): 22.4 µM; TGI (SR leukemia): 65.5 µM; GI50 (A549 NSCLC): 17.8 µM; TGI (A549 NSCLC): 41.6 µM; GI50 (BT-549 breast): 17.1 µM; TGI (BT-549 breast): 41.7 µM; GI50 (786-0 renal): 17.6 µM; TGI (786-0 renal): 42.4 µM; GI50 (U251 CNS): 15.2 µM; TGI (U251 CNS): 31.7 µM; GI50 (DU-145 prostate): 21.5 µM; TGI (DU-145 prostate): 81 µM; GI50 (HCT-116 colon): 18.2 µM; TGI (HCT-116 colon): 50.2 µM; GI50 (MDA-MB-231 breast): 19.9 µM; TGI (MDA-MB-231 breast): 51.7 µM; GI50 (SF-539 CNS): 16.1 µM; TGI (SF-539 CNS): 34.4 µM; GI50 (UACC-257 melanoma): 21 µM; TGI (UACC-257 melanoma): 42.8 µM; GI50 (MDA-MB-435): 15.9 µM; TGI (MDA-MB-435): 35 µM
